Results published in article PMC7195552 (Journal of Burn Care & Research: Official Publication of …, 2020).
Like-named read-outs stand apart in the source and are kept apart here.

How the values were obtained:
[1] = Hepatorenal function index of patients after daptomycin medication; conditions: 12 mg/kg/d, average ± SD n = 7, patients received supplemental plasma albumin
Procedure: All statistical analyses were conducted using SAS™ 9.3 software (Cary, NC) and a P value <.05 was considered to be statistically significant.

[2] = Creatine phosphokinase levels and adverse events during daptomycin treatment; assay type: in vivo, human
Source text: The level returned to a normal value without discontinuation of daptomycin treatment. There were no significant CPK differences in the indicated time points between the groups (Table 8).

[3] = Plasma pharmacokinetics of daptomycin in patients with severe burn injuries (LC-MS/MS, DAS 2.0); assay type: in vivo, human; conditions: for half-life: read-out: t(h)½ (converted)
Procedure: Multiple-dose medication treatment means that daptomycin was administered to burn injury patients as one injection every day of either the standard dose or a high dose. […] During intravenous infusion, vigorous agitation or shaking during drug dissolution was not permitted, thus preventing the formation of gas bubbles. […] The samples were centrifuged and stored at −80°C until required for analysis. PK evaluation was performed by measuring the daptomycin levels in blood samples, using liquid chromatography–mass spectrometry/mass spectrometry (LC-MS/MS) (Waters Micromass Quattro Micro API LC-MS/MS). Chromatographic separation was performed at 35°C using a RP-C18 (Welch Ultimate, 3.0 mm × 150 mm) analytical column. […] PK parameters were calculated using DAS 2.0. […] The maximum plasma concentration (Cmax) and the time at which it occurred (Tmax) were determined directly from the measured plasma concentration–time without interpolation. […] The total body clearance (CL) was obtained from dose/AUC0–∞. The volume of distribution (Vd) was calculated using the equation CL/Ke.

[4] = patient 1, 12 mg/kg/d iv, multiple dose
[5] = patient 1, 12 mg/kg/d iv, single dose
[6] = patient 2, 12 mg/kg/d iv, multiple dose
[7] = patient 2, 12 mg/kg/d iv, single dose
[8] = patient 3, 12 mg/kg/d iv, multiple dose
[9] = patient 3, 12 mg/kg/d iv, single dose
[10] = patient 4, 12 mg/kg/d iv, multiple dose
[11] = patient 4, 12 mg/kg/d iv, single dose
[12] = patient 5, 12 mg/kg/d iv, multiple dose
[13] = patient 5, 12 mg/kg/d iv, single dose
[14] = patient 6, 12 mg/kg/d iv, multiple dose
[15] = patient 6, 12 mg/kg/d iv, single dose
[16] = patient 7, 12 mg/kg/d iv, multiple dose
[17] = patient 7, 12 mg/kg/d iv, single dose
[18] = patient 8, 6 mg/kg/d iv, multiple dose
[19] = patient 8, 6 mg/kg/d iv, single dose
[20] = patient 9, 6 mg/kg/d iv, multiple dose
[21] = patient 9, 6 mg/kg/d iv, single dose
[22] = patient 10, 6 mg/kg/d iv, multiple dose
[23] = patient 10, 6 mg/kg/d iv, single dose

With `CCCCCCCCCC(=O)N[C@@H](Cc1c[nH]c2ccccc12)C(=O)N[C@H](CC(N)=O)C(=O)N[C@@H](CC(=O)O)C(=O)N[C@@H]1C(=O)NCC(=O)N[C@@H](CCCN)C(=O)N[C@@H](CC(=O)O)C(=O)N[C@H](C)C(=O)N[C@@H](CC(=O)O)C(=O)NCC(=O)N[C@H](CO)C(=O)N[C@@H]([C@H](C)CC(=O)O)C(=O)N[C@@H](CC(=O)c2ccccc2N)C(=O)O[C@@H]1C` [daptomycin] as the compound, how does the “Alb after daptomycin treatment (7 days)” value [1] read?
Its value is 40.5 ± 4.6 g/L.

And the “serious adverse events or treatment discontinuations” value ([2]; 12 mg/kg/d iv once daily, entire study period)?
The value was “no serious adverse events or treatment discontinuations”.

What about the CPK adverse reaction ([2]; patient no. 3, high-dose, day 3, returned to normal without discontinuation) of the same compound?
Its CPK adverse reaction is “transient increase of CPK”.

What about the “serious adverse events and nonserious AEs leading to discontinuation” value ([2]; whole study, 6 or 12 mg/kg/d for 7 to 14 days, 10 patients) of the same compound?
The value was “No serious adverse events”.

What about the CL ([3]; 6 mg/kg/d iv, multiple dose (day 6), average ± SD n = 3, SD) of the same compound?
The CL was 0.0247 ± 0.0118 L/h/kg.

And the V d ([3]; 12 mg/kg/d iv, multiple dose (day 6), average ± SD n = 7, SD)?
The V d was 0.24 ± 0.11 L/kg.

And the Tmax ([3]; human, in vivo, iv, 6 mg/kg)?
Its Tmax is about 2 h.

What about the half-life ([3]; human, in vivo, iv, 6 mg/kg/d, 6 mg/kg/d iv, multiple dose (day 6), average ± SD n = 3, SD) of the same compound?
The half-life was 6.47 ± 1.34 h.

What about the half-life ([3]; human, in vivo, iv, 6 mg/kg/d, 6 mg/kg/d iv, single dose, average ± SD n = 3, SD) of the same compound?
Its half-life is 5.64 ± 1 h.

What about the clearance ([3]; human, in vivo, iv, 12 mg/kg/d, 12 mg/kg/d iv, single dose, average ± SD n = 7, SD, read-out: CL (converted)) of the same compound?
Its clearance is 0.0225 L/h/kg.

What about the half-life ([3]; human, in vivo, iv, 12 mg/kg/d, 12 mg/kg/d iv, single dose, average ± SD n = 7, SD) of the same compound?
Its half-life is 7.4 ± 2.5 h.

And the V d ([3]; human, in vivo, iv, V d, SD)?
The V d was 0.24 ± 0.1 L/kg.

And the V d ([3]; human, in vivo, iv, SD)?
The V d was 0.19 ± 0.1 L/kg.

What about the clearance ([3]; human, in vivo, iv, SD) of the same compound?
Its clearance is 0.0242 L/h/kg.

And the AUC(0-t) ([3]; human, in vivo, 6 mg/kg/d iv, single dose, average ± SD n = 3, SD, read-out: AUC0–24)?
The AUC(0-t) was 255 ± 51.6 µg·h/mL.

What about the clearance ([3]; human, in vivo, 12 mg/kg/d iv, multiple dose (day 6), average ± SD n = 7, SD, read-out: CL (converted)) of the same compound?
Its clearance is 0.0198 L/h/kg.

And the “t(h)½” value ([3]; multiple doses, independent of the dose received (all patients))?
The value was 8.10 ± 1.91 h.

And the “AUC0–24” value [3, 4]?
The value was 588.2 µg·h/mL.

What about the CL [3, 4] of the same compound?
Its CL is 0.0204 L/h/kg.

What about the V d [3, 4] of the same compound?
Its V d is 0.26 L/kg.

And the “t(h)½” value [3, 4]?
The value was 8.8 h.

And the “AUC0–24” value [3, 5]?
Its value is 486.9 µg·h/mL.

What about the CL [3, 5] of the same compound?
Its CL is 0.0219 L/h/kg.

And the V d [3, 5]?
The V d was 0.26 L/kg.

And the “AUC0–24” value [3, 6]?
Its value is 679.0 µg·h/mL.

And the CL [3, 6]?
The CL was 0.01767 L/h/kg.

What about the V d [3, 6] of the same compound?
The V d was 0.22 L/kg.

What about the “t(h)½” value [3, 6] of the same compound?
Its value is 8.5 h.

What about the “AUC0–24” value [3, 7] of the same compound?
The value was 511.2 µg·h/mL.

And the CL [3, 7]?
The CL was 0.0216 L/h/kg.

What about the V d [3, 7] of the same compound?
The V d was 0.21 L/kg.

And the “t(h)½” value [3, 7]?
Its value is 0.5 h.

What about the “AUC0–24” value [3, 8] of the same compound?
The value was 580.7 µg·h/mL.

And the CL [3, 8]?
Its CL is 0.02066 L/h/kg.

And the V d [3, 8]?
The V d was 0.20 L/kg.

What about the “t(h)½” value [3, 8] of the same compound?
Its value is 6.7 h.

And the “AUC0–24” value [3, 9]?
The value was 426.7 µg·h/mL.

And the CL [3, 9]?
The CL was 0.0254 L/h/kg.

What about the V d [3, 9] of the same compound?
The V d was 0.25 L/kg.

And the “t(h)½” value [3, 9]?
Its value is 0.5 h.

What about the “AUC0–24” value [3, 10] of the same compound?
Its value is 709.6 µg·h/mL.

And the CL [3, 10]?
Its CL is 0.01691 L/h/kg.

And the V d [3, 10]?
The V d was 0.16 L/kg.

What about the “t(h)½” value [3, 10] of the same compound?
Its value is 6.6 h.

What about the “AUC0–24” value [3, 11] of the same compound?
Its value is 477.6 µg·h/mL.

And the CL [3, 11]?
Its CL is 0.0233 L/h/kg.

What about the V d [3, 11] of the same compound?
The V d was 0.29 L/kg.

What about the “t(h)½” value [3, 11] of the same compound?
Its value is 0.5 h.

What about the “AUC0–24” value [3, 12] of the same compound?
The value was 987.6 µg·h/mL.

And the CL [3, 12]?
Its CL is 0.01215 L/h/kg.

And the V d [3, 12]?
The V d was 0.10 L/kg.

What about the “t(h)½” value [3, 12] of the same compound?
Its value is 5.7 h.

What about the “AUC0–24” value [3, 13] of the same compound?
Its value is 809.9 µg·h/mL.

What about the CL [3, 13] of the same compound?
Its CL is 0.0141 L/h/kg.

What about the V d [3, 13] of the same compound?
Its V d is 0.10 L/kg.

And the “t(h)½” value [3, 13]?
Its value is 1.5 h.

And the “AUC0–24” value [3, 14]?
Its value is 489.1 µg·h/mL.

What about the CL [3, 14] of the same compound?
Its CL is 0.02453 L/h/kg.

What about the V d [3, 14] of the same compound?
Its V d is 0.32 L/kg.

What about the “t(h)½” value [3, 14] of the same compound?
Its value is 9.1 h.

And the “AUC0–24” value [3, 15]?
Its value is 439.4 µg·h/mL.

What about the CL [3, 15] of the same compound?
Its CL is 0.0267 L/h/kg.

What about the V d [3, 15] of the same compound?
The V d was 0.15 L/kg.

What about the “t(h)½” value [3, 15] of the same compound?
The value was 0.5 h.

What about the “AUC0–24” value [3, 16] of the same compound?
The value was 456.2 µg·h/mL.

What about the CL [3, 16] of the same compound?
The CL was 0.0263 L/h/kg.

What about the V d [3, 16] of the same compound?
The V d was 0.43 L/kg.

What about the “t(h)½” value [3, 16] of the same compound?
Its value is 11.3 h.

What about the “AUC0–24” value [3, 17] of the same compound?
The value was 399.0 µg·h/mL.

And the CL [3, 17]?
The CL was 0.0243 L/h/kg.

And the V d [3, 17]?
The V d was 0.41 L/kg.

And the “t(h)½” value [3, 17]?
Its value is 0.5 h.

And the “AUC0–24” value [3, 18]?
The value was 394.7 µg·h/mL.

And the CL [3, 18]?
Its CL is 0.01757 L/h/kg.

And the V d [3, 18]?
Its V d is 0.15 L/kg.

And the “t(h)½” value [3, 18]?
Its value is 6.093 h.

And the “AUC0–24” value [3, 19]?
The value was 273.7 µg·h/mL.

And the CL [3, 19]?
The CL was 0.02192 L/h/kg.

And the V d [3, 19]?
The V d was 0.14 L/kg.

And the “t(h)½” value [3, 19]?
Its value is 4.97 h.

And the “AUC0–24” value [3, 20]?
The value was 249.5 µg·h/mL.

And the CL [3, 20]?
Its CL is 0.03832 L/h/kg.

What about the V d [3, 20] of the same compound?
Its V d is 0.44 L/kg.

What about the “t(h)½” value [3, 20] of the same compound?
Its value is 7.958 h.

What about the “AUC0–24” value [3, 21] of the same compound?
Its value is 197.0 µg·h/mL.

And the CL [3, 21]?
Its CL is 0.03045 L/h/kg.

What about the V d [3, 21] of the same compound?
The V d was 0.27 L/kg.

What about the “t(h)½” value [3, 21] of the same compound?
Its value is 6.737 h.

And the “AUC0–24” value [3, 22]?
The value was 330.3 µg·h/mL.

What about the CL [3, 22] of the same compound?
Its CL is 0.01816 L/h/kg.

And the V d [3, 22]?
The V d was 0.14 L/kg.

What about the “t(h)½” value [3, 22] of the same compound?
The value was 5.349 h.

What about the “AUC0–24” value [3, 23] of the same compound?
The value was 295.2 µg·h/mL.

And the CL [3, 23]?
The CL was 0.02032 L/h/kg.

And the V d [3, 23]?
Its V d is 0.15 L/kg.

And the “t(h)½” value [3, 23]?
The value was 5.377 h.
